Target: T1, type H3 central histamine receptors (Mus musculus, UniProt P58406)
T1 construct: from tissue; host or cells: brain of living NMRI mice, treated in vivo; brains removed afterwards for the metabolite RIA
Assay: Cerebral levels of Nτ-methylhistamine in the NMRI mouse (ex vivo, RIA)
Settings: one hour after treatment
Procedure: The purpose of this study, which was carried out in accordance with the method of Taylor et al. (Biochem. Pharm., 1992, 44, 1261-1267), is to evaluate the ex vivo activity of the compounds of the present invention as antagonists of type H3 central histamine receptors. […] An increase in the cerebral concentrations of N^τ-methylhistamine indicates an increase in the turn-over of histamine by blockage of the type H3 central histamine receptors.
NMRI mice (18-20 g) are treated intraperitoneally or orally with compounds of the present invention or with their carrier (20 ml/kg). One hour after the pharmacological treatment, the animals are sacrificed, and their brains are removed, frozen in liquid nitrogen, weighed and homogenised in 0.1N HClO4 at 4° C. The homogenised products are centrifuged (15 000 g, 17 min, 4° C.). The supernatants are recovered and divided into aliquots. The aliquots are frozen in liquid nitrogen and stored at −80° C. until analysis.
Determination of the cerebral levels of N′-methylhistamine is carried out by radio-immunological assay (RIA) using an assay kit. The tissue levels of N^τ-methylhistamine are expressed in μg/g of fresh brain. […]

T1 sequence (P58406 whole entry): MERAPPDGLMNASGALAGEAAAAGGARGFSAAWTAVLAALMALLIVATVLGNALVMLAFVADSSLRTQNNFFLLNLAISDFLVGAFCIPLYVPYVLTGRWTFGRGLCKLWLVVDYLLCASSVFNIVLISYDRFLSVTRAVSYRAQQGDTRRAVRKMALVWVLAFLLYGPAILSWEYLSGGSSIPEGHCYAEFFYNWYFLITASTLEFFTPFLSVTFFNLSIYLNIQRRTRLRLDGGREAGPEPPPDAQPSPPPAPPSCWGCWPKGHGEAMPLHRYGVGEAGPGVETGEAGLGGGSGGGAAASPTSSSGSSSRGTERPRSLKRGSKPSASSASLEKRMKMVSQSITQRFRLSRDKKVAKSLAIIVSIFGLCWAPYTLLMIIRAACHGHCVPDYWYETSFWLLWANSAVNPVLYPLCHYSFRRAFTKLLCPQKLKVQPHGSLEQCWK

SMILES | increase in the endogenous cerebral concentrations of Nτ-methylhistamine (3 mg/kg PO) [%] | increase in the endogenous cerebral concentrations of Nτ-methylhistamine (10 mg/kg PO) [%]
CC(C)N1CCN(c2ccc(-c3ccc(NS(=O)(=O)C(C)C)cc3)cn2)CC1.Cl.Cl [Example 7, N-{4-[6(4-Isopropylpiperazin-1-yl)pyridin-3-yl]phenyl}propane-2-sulphonamide dihydrochloride] | 138 | 
CS(=O)(=O)Nc1ccc(-c2ccc(N3CCN(C4CC4)CC3)nc2)cc1.Cl.Cl [Example 4, N-{4-[6-(4-Cyclopropylpiperazin-1-yl)pyridin-3-yl]phenyl}methane-sulphonamide dihydrochloride] |  | 162
